Test results taken from patent EP0030835A1, “Derivatives of 2-substituted-6-phenyl-3(2H)pyridazinone, their production and pharmaceutical compositions containing them” (MORISHITA PHARMACEUTICAL CO. LTD., priority 1979, dated 1981).

How the values were obtained:
[1] = Acute oral toxicity (LD50 p.o.); settings: rat, in vivo, rats, read-out: Acute oral toxicity (LD50,kgx10^-6/kg)
[2] = system: gastric secretion; assay: Effects on gastric secretion (pylorus-ligated rats); format: in vivo; settings: Rattus norvegicus, intraduodenal, 100 mg/kg intraduodenally, pylorus ligature, gastric juice collected after 7 hours, read-out: Rate of inhibition, Gastric secretion (%)
Method: One group of 10 rats of body weight of from 1.5x10^-1 to 1.8x10^-1 kg (150 to 180g) was subjected to ligature of the pylorus after 24-hours fasting, under ether-anaesthesia, and one of the compounds of the present invention or the reference compound was administered as a dispersion in an aqueous 1% CMC solution into the duodenum. Only an aqueous 1% CMC solution was administered into the duodenum of a control group of 10 rats. After 7 hours from closing the abdomen, the stomach was extirpated under ether-anaesthesia to collect the gastric juice that had accumulated in it. The inhibiting effect of each drug on gastric secretion was calculated by the following formula: [formula] wherein Amount of gastric juice of control group = A ml Amount of gastric juice of test group = B ml The results are also shown in Table 1.
(§1) Note: ^* The structure of the compounds of the invention is expressed by the formula: [drawing 8] **The structure of the reference compound is expressed by the formula: [drawing 9] **Experiments were carried out on rats and the rate of inhibition was obtained at a dose of 10^-4 kg/kg (100 mg/kg) orally or intraduodenally.

[3] = system: Shay's ulcer; assay: Shay's ulcer; format: in vivo; settings: Rattus norvegicus, intraduodenal; rats, 100 mg/kg intraduodenally, pylorus ligature, 18 hours, ulcer area of forestomach; read-out: Rate of inhibition, Shay's ulcer (%)
Method: Two groups of rats of body weight of from 2x10^-1 to 2.5x10^-1 kg (200 to 250 g), each group consisting of 10 animals, were treated under ether-anaesthesia by ligature of the pylorus after 48 hour-fasting (during which water was taken ad lib.) and, just after the operation, an aqueous suspension of one of the compounds of the invention in a 1% solution of carboxymethylcellulose (hereinafter referred to as CMC) was administered intraduodenally to the rats in one group at a dose of 10^-4 kg/kg (100 mg/kg). The other group (control) was given an aqueous 1% solution of CMC intraduodenally. After keeping these animals for 18 hours without giving them any food and water, their stomachs were extirpated under ether anaesthesia and the area (m^2x10^-6) (mm ) of the ulcer generated on the forestomach part of the rats was determined under an anatomical microscope. The total area of the ulcers of one group was represented by an ulcer coefficient. The rate of inhibition of the occurrence of ulcers (%) was obtained by calculation according to the following formula: Rate of inhibition of the occurrence of ulcers (%)= 100 x (Ulcer coeff. of control qp) - (Ulcer coeff. of test qp) (ulcer coeff.of control gp)
as §1

[4] = system: Stress ulcer; assay: Stress ulcer (restriction in water); format: in vivo; settings: Rattus norvegicus, po; rats, 100 mg/kg orally, immersed in water at 23°C for 20 hours, length of erosion; read-out: Rate of inhibition, Stress ulcer (%)
Method: One group of 10 rats of body weight of from 2x10^-1 to 2.5x10^-1kg (200 to 250 g) after oral administration of an aqueous suspension of the compound of the invention being tested in a 1% CMC solution at a dose of 10^-4 kg/kg (100 mg/kg) were kept in stress cages and immersed in water at a temperature of 23°C to the depth of their thorax for 20 hours to give a stress of restriction in water. Another group of 10 rats of the same strain (a control group) were also treated with the same stress, but after administration of an aqueous 1% CMC solution.
Just after removing the rats from the water, they were clubbed to death and their stomachs were extirpated. Then, about 1.5x10^-5m^3 (15 ml) of an aqueous 1% formaldehyde solution was injected into each stomach. After maintaining the formaldehyde solution in the stomachs for 10 minutes to enable the solution to contact to the inner stomach wall, each stomach was cut open along the greater curvature to examine the length of erosion (in 10" m (mm)) generated on the mucosa of the glandular stomach region under an anatomical microscope. The sum of the length of erosion for rats of one group was represented by the ulcer coefficient. The rate of inhibition of the occurrence of the ulcer by each compound was obtained by the same method as in 1-1), the results being shown also in Table 1.
as §1

[5] = system: Aspirin-induced ulcer; assay: Aspirin-induced ulcer; format: in vivo; settings: Rattus norvegicus; rats, 100 mg/kg intraduodenally, aspirin 100 mg/kg orally, 7 hours, length of erosion; read-out: Rate of inhibition, Aspirin-ulcer (%)
Method: One group of 10 rats of body weight of from 2x10^-1 to 2.5x10^-1 kg (200 to 250 g) was subjected to laparotomy under ether-anaesthesia, after 24 hour-fasting with ad lib. taking water, to have ligature of their pylorus (according to Okabe et al., 1974). Just after the ligature, an aqueous suspension of one of the compounds of the invention in a 1% CMC solution was intraduodenally administered to the rats at a dose of 10^-4 kg/kg (100 mg/kg). After closing the abdomen, an aqueous dispersion of aspirin in a 1% CMC solution was orally administered at a dose of 10^-4 kg/kg (100 mg/kg). After 7 hours of the aspirin administration, the stomach was extirpated under ether-anaesthesia, and the length (in 10^-3m (mm)) of erosions generated on the mucosa of the glandular stomach region was measured. The sum of the length of erosion on rats of one group was represented by the ulcer coefficient. The same procedures were carried out on another group of 10 rats of the same strain (a control group) except that an aqueous 1% CMC solution was administered instead of the aqueous dispersion of one of the compounds of the present invention. The rate of inhibition of the occurrence of ulcers was obtained by calculation as in 1-2), the results being also shown in Table 1.
as §1

CN=C(NC#N)NCCCCn1nc(-c2ccccc2)ccc1=O [Compound No. 44, N-cyano-N'-[4-(3-oxo-6-phenyl-2-pyridazinyl)butyl]-N"-methylguanidine]
LD50 [1]: > 5000 mg/kg
inhibition in vivo at 100 mg/kg [2]: 77.6%
inhibition in vivo at 100 mg/kg [3]: 97.8%
inhibition in vivo at 100 mg/kg [4]: 71.2%
inhibition in vivo at 100 mg/kg [5]: 97.5%

CCN=C(NC#N)NCCCn1nc(-c2ccccc2)ccc1=O [Compound No. 48, N-cyano-N'-[3-(3-oxo-6-phenyl-2-pyridazinyl)propyl]-N"-ethylguanidine]
LD50 [1]: > 5000 mg/kg
inhibition in vivo at 100 mg/kg [2]: 51.9%
inhibition in vivo at 100 mg/kg [3]: 76.4%
inhibition in vivo at 100 mg/kg [4]: 70.5%
inhibition in vivo at 100 mg/kg [5]: 93.8%

CCN=C(NC#N)NCCCCn1nc(-c2ccccc2)ccc1=O [Compound No. 50, N-cyano-N'-[4-(3-oxo-6-phenyl-2-pyridazinyl)butyl]-N"-ethylguanidine]
LD50 [1]: > 5000 mg/kg
inhibition in vivo at 100 mg/kg [2]: 59.2%
inhibition in vivo at 100 mg/kg [3]: 73.4%
inhibition in vivo at 100 mg/kg [4]: 77.2%
inhibition in vivo at 100 mg/kg [5]: 86.2%

CCN=C(NC#N)NCCCCCn1nc(-c2ccccc2)ccc1=O [Compound No. 53, N-cyano-N'-[5-(3-oxo-6-phenyl-2-pyridazinyl)pentyl]-N"-ethylguanidine]
LD50 [1]: > 5000 mg/kg
inhibition in vivo at 100 mg/kg [2]: 68.5%
inhibition in vivo at 100 mg/kg [3]: 93.2%
inhibition in vivo at 100 mg/kg [4]: 79%
inhibition in vivo at 100 mg/kg [5]: 90.6%

CN=C(NC#N)NCCCCn1nc(-c2ccc(Cl)cc2)ccc1=O [Compound No. 59, N-cyano-N'-[4-{6-(4-chlorophenyl)-3-oxo-2-pyridazinyl}butyl]-N"- methylguanidine]
LD50 [1]: 4800 mg/kg
inhibition in vivo at 100 mg/kg [2]: 63.1%
inhibition in vivo at 100 mg/kg [3]: 61.5%
inhibition in vivo at 100 mg/kg [4]: 72.1%
inhibition in vivo at 100 mg/kg [5]: 89.5%

CN=C(NC#N)NCCCCn1nc(-c2ccc(C)cc2)ccc1=O [Compound No. 65, N-cyano-N'-[4-{6-(4-methylphenyl)-3-oxo-2-pyridazinyl}butyl]-N"- methylguanidine]
LD50 [1]: > 5000 mg/kg
inhibition in vivo at 100 mg/kg [2]: 58.5%
inhibition in vivo at 100 mg/kg [3]: 70.3%
inhibition in vivo at 100 mg/kg [4]: 70.5%
inhibition in vivo at 100 mg/kg [5]: 91.4%

CN=C(NC#N)NCCCCn1nc(-c2ccccc2)cc(C)c1=O [Compound No. 81, N-cyano-N'-[4-(4-methyl-3-oxo-6-phenyl-2-pyridazinyl)butyl]-N"- methylguanidine]
LD50 [1]: > 5000 mg/kg
inhibition in vivo at 100 mg/kg [2]: 54.2%
inhibition in vivo at 100 mg/kg [3]: 72.4%
inhibition in vivo at 100 mg/kg [4]: 63.4%
inhibition in vivo at 100 mg/kg [5]: 90.8%

CN=C(NC#N)NCCSCn1nc(-c2ccccc2)ccc1=O [Compound No. 138, N-cyano-N'-[2-{(3-oxo-6-phenyl-2-pyridazinyl)methylthio}ethyl]-N"-methylguanidine]
LD50 [1]: 4800 mg/kg
inhibition in vivo at 100 mg/kg [2]: 70.2%
inhibition in vivo at 100 mg/kg [3]: 88.3%
inhibition in vivo at 100 mg/kg [4]: 68.2%
inhibition in vivo at 100 mg/kg [5]: 90.2%
